Assay results as given in US8039453B2, “Vinca derivatives” (priority 2006, dated 2011).
Where two headings read alike, the source gives them in different places.

Tested on: HeLa S-3 human cervical carcinoma cell line
Experiment: HeLa GI50 determination (SRB growth inhibition)
Assay type: cell-based
Conditions: HeLa S3, 48 h, read-out: HeLa Cells GI50
Protocol: A. HeLa GI50 Determinations
Growth inhibition (GI50) values were measured on the human cervical carcinoma cell line, HeLa S-3, which were selected for growth on plastic. The HeLa cell assay was based on the description of Skehan et al., J. Natl. Cancer Inst., 82:1107-12 (1990), which is hereby incorporated by reference in its entirety. HeLa cells were plated at 2×10^4 cells/well in 96 well plates. One day later, a control plate was fixed by the addition of TCA to 5%. After five rinses with tap water, the plate was air-dried and stored at 4° C. Test compounds were added to the remaining plates at 10-fold dilutions. Two days later, all plates were fixed as described above. Cells were then stained by the addition of 100 μL per well of 0.4% sulforhodamine B (SRB) in 1% acetic acid for 30 min at 4° C. Wells were then quickly rinsed 5× with 1% acetic acid and allowed to air dry. The SRB was then solubilized by the addition of 100 μL per well of unbuffered 10 mM Tris base. Dye was quantified by measuring absorbance at 490 nm on a Molecular Devices microplate reader. Growth inhibition was calculated according to the following equation: GI=100×(T−T0)/(C−T0), where the optical density (OD) of the test well after 2 days of treatment was T, the OD of the wells in the control plate on day 0 was T0 and C was the OD of untreated wells. Plots of percent growth inhibition versus inhibitor concentration were used to determine the GI50.

[1] = HeLa S-3 cells, 2 days of treatment, sulforhodamine B staining

SMILES	GI50 [1]	GI50
CCc1ccc2[nH]c3c(c2c1)CCN1CC(C(C)(F)F)C[C@@H](C1)C[C@]3(C(=O)OC)c1cc2c(cc1OC)N(C)[C@H]1[C@@](O)(C(=O)OC)[C@H](OC(C)=O)[C@]3(CC)C=CCN4CC[C@]21[C@@H]43 (stereo partly drawn) [Example 3, 12′-Ethyl-4′-deoxy-20′,20′-diflurovincaleukoblastine]	> 1000 nM	–
CC[C@]12C=CCN3CC[C@@]4(c5cc([C@@]6(C(=O)OC)C[C@H]7CC(C(C)(F)F)CN(CCc8c6[nH]c6ccc(-c9ccccc9)cc86)C7)c(OC)cc5N(C)[C@H]4[C@@](O)(C(=O)OC)[C@@H]1OC(C)=O)[C@@H]32 (stereo partly drawn) [Example 6, 12′-Phenyl-4′-deoxy-20′,20′-diflurovincaleukoblastine]	–	23100 nM
CC[C@]12C=CCN3CC[C@@]4(c5cc([C@@]6(C(=O)OC)C[C@H]7CC(C(C)(F)F)CN(CCc8c6[nH]c6ccc(SC)cc86)C7)c(OC)cc5N(C)[C@H]4[C@@](O)(C(=O)OC)[C@@H]1OC(C)=O)[C@@H]32 (stereo partly drawn) [Example 12, 12′-(Methylsulfanyl)-4′-deoxy-20′,20′-diflurovincaleukoblastine]	93 nM	–
